PubChem BioAssay AID248 (DTP/NCI, 2004)
Several values for one entry are separate records, joined by “and”; a condition that tells them apart may be missing. Equal values may be shown once. Inconclusive results and toxic doses are left out. No stated cut-off is given here; in the data, active means T/C of 150% or more; inactive means T/C below 125%.

Tested on: L1210 leukemia ip in BDF1 mice, survival T/C
Experiment: NCI In Vivo Anticancer Drug Screen. Data for tumor model L1210 Leukemia (intraperitoneal) in B6D2F1 (BDF1) mice
Conditions: endpoint: mean survival time, higher = longer survival
Outline: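 Tumor was transplanted into mice, which were then dosed with test compound or vehicle alone. Survival was recorded for each group, and the treated figure was expressed relative to the control figure.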

[1] = dose: 100.0 mg/kg/injection, schedule: Q04DX002 (ip), vehicle: Klucel (hydroxypropylcellulose) (HPC)
[2] = dose: 100.0 mg/kg/injection, schedule: Q01DX001 (ip), vehicle: saline
[3] = dose: 200.0 mg/kg/injection, schedule: Q01DX001 (ip), vehicle: saline
[4] = dose: 100.0 mg/kg/injection, schedule: Q04DX003 (ip), vehicle: saline with Tween-80
[5] = dose: 200.0 mg/kg/injection, schedule: Q04DX003 (ip), vehicle: saline with Tween-80
[6] = dose: 400.0 mg/kg/injection, schedule: Q04DX003 (ip), vehicle: saline with Tween-80
[7] = dose: 100.0 mg/kg/injection, schedule: Q01DX001 (ip), vehicle: carboxymethylcellulose (CMC)
[8] = dose: 200.0 mg/kg/injection, schedule: Q01DX001 (ip), vehicle: carboxymethylcellulose (CMC)
[9] = dose: 50.0 mg/kg/injection, schedule: Q01DX001 (ip), vehicle: saline
[10] = dose: 400.0 mg/kg/injection, schedule: Q01DX001 (ip), vehicle: saline
[11] = dose: 200.0 mg/kg/injection, schedule: Q04DX002 (ip), vehicle: Klucel (hydroxypropylcellulose) (HPC)
[12] = dose: 400.0 mg/kg/injection, schedule: Q04DX002 (ip), vehicle: Klucel (hydroxypropylcellulose) (HPC)

Measured: T/C

Cc1cccc(C)c1NC(=O)NCc1ccco1
inactive: dose: 25.0 mg/kg/injection, schedule: Q04DX002 (ip), vehicle: Klucel (hydroxypropylcellulose) (HPC) 99 % of control | dose: 50.0 mg/kg/injection, schedule: Q04DX002 (ip), vehicle: Klucel (hydroxypropylcellulose) (HPC) 118 % of control | dose: 100.0 mg/kg/injection, schedule: Q01DX009 (ip), vehicle: Klucel (hydroxypropylcellulose) (HPC) 103 % of control | [1] 100 % of control and 103 % of control | dose: 100.0 mg/kg/injection, schedule: Q04DX003 (ip), vehicle: Klucel (hydroxypropylcellulose) (HPC) 103 % of control | dose: 200.0 mg/kg/injection, schedule: Q01DX009 (ip), vehicle: Klucel (hydroxypropylcellulose) (HPC) 107 % of control | dose: 200.0 mg/kg/injection, schedule: Q04DX003 (ip), vehicle: Klucel (hydroxypropylcellulose) (HPC) 100 % of control | dose: 400.0 mg/kg/injection, schedule: Q01DX009 (ip), vehicle: Klucel (hydroxypropylcellulose) (HPC) 102 % of control | dose: 400.0 mg/kg/injection, schedule: Q04DX003 (ip), vehicle: Klucel (hydroxypropylcellulose) (HPC) 93 % of control

C/C(=C1/SC(=S)NC1=O)c1ccccc1O
inactive: [2] 104 % of control | [3] 104 % of control

[Co+2].[NH-]C(CC(N)=O)C(=O)O.[NH-]C(CC(N)=O)C(=O)O (stereo unspecified)
inactive: dose: 100.0 mg/kg/injection, schedule: Q04DX002 (ip), vehicle: saline 108 % of control | dose: 200.0 mg/kg/injection, schedule: Q04DX002 (ip), vehicle: saline 86 % of control

CCCc1ccc(O)c(O)c1
inactive: dose: 20.0 mg/kg/injection, schedule: Q01DX001 (ip), vehicle: saline 103 % of control | dose: 20.0 mg/kg/injection, schedule: Q01DX009 (ip), vehicle: saline 105 % of control | dose: 40.0 mg/kg/injection, schedule: Q01DX001 (ip), vehicle: saline 96 % of control | dose: 40.0 mg/kg/injection, schedule: Q01DX009 (ip), vehicle: saline 93 % of control | dose: 80.0 mg/kg/injection, schedule: Q01DX001 (ip), vehicle: saline 92 % of control

Cc1cc(C(=O)C=[N+]=[N-])c(CN2C(=O)c3ccccc3C2=O)c(=O)n1C
inactive: dose: 100.0 mg/kg/injection, schedule: Q04DX003 (ip), vehicle: other 100 % of control | dose: 200.0 mg/kg/injection, schedule: Q04DX003 (ip), vehicle: other 93 % of control | dose: 400.0 mg/kg/injection, schedule: Q04DX003 (ip), vehicle: other 94 % of control

CC1=CCCCC1Oc1ccccc1 (stereo unspecified)
inactive: [4] 104 % of control | [5] 96 % of control | [6] 109 % of control

O=N[C@H]1C2CC([C@@H]1Cl)[C@@H]1CC=C[C@H]21 (stereo partly specified)
inactive: dose: 50.0 mg/kg/injection, schedule: Q01DX001 (ip), vehicle: carboxymethylcellulose (CMC) 95 % of control | [7] 101 % of control | [8] 95 % of control

CCOC(=O)c1ncc2cnccn12
inactive: dose: 50.0 mg/kg/injection, schedule: Q01DX009 (ip), vehicle: saline 92 % of control | dose: 100.0 mg/kg/injection, schedule: Q01DX009 (ip), vehicle: saline 120 % of control | dose: 100.0 mg/kg/injection, schedule: Q04DX003 (ip), vehicle: saline 107 % of control | dose: 200.0 mg/kg/injection, schedule: Q01DX009 (ip), vehicle: saline 94 % of control | dose: 200.0 mg/kg/injection, schedule: Q04DX003 (ip), vehicle: saline 104 % of control

CCCCCc1c(C)nc([N+](=O)[O-])nc1N
inactive: dose: 3.13 mg/kg/injection, schedule: Q01DX001 (ip), vehicle: saline with Tween-80 97 % of control | dose: 6.25 mg/kg/injection, schedule: Q01DX001 (ip), vehicle: saline with Tween-80 101 % of control | dose: 12.5 mg/kg/injection, schedule: Q01DX001 (ip), vehicle: saline with Tween-80 96 % of control

CC(=O)OCCC(OC(C)=O)c1ccccn1 (stereo unspecified)
inactive: [9] 100 % of control | [2] 103 % of control | [3] 97 % of control | [10] 103 % of control

CCN(CC)CCCNC(c1ccccc1)C(Cl)(Cl)Cl (stereo unspecified)
inactive: [2] 96 % of control

CCN1CCC(CCOC)(CN2c3ccccc3Sc3ccccc32)C1 (stereo unspecified)
inactive: dose: 12.5 mg/kg/injection, schedule: Q04DX003 (ip), vehicle: saline 95 % of control | dose: 25.0 mg/kg/injection, schedule: Q04DX003 (ip), vehicle: saline 97 % of control | dose: 50.0 mg/kg/injection, schedule: Q04DX003 (ip), vehicle: saline 104 % of control

Cc1ccc(C2CCCN(C)O2)cc1 (stereo unspecified)
inactive: [2] 102 % of control | [3] 101 % of control | [10] 93 % of control

CCCCCCCCCCCCCCCCCCNC(=O)Nc1ccc(OC)cc1
inactive: [1] 93 % of control | [11] 104 % of control | [12] 93 % of control

COc1ccc(C(=O)c2ccccc2C)cc1OC
inactive: [2] 95 % of control | [3] 97 % of control | [10] 91 % of control

COC(=O)CCCCCCCCC(C)c1ccc(C(C)=O)cc1 (stereo unspecified)
inactive: dose: 100.0 mg/kg/injection, schedule: Q01DX009 (ip), vehicle: saline with Tween-80 95 % of control | [4] 99 % of control | dose: 200.0 mg/kg/injection, schedule: Q01DX009 (ip), vehicle: saline with Tween-80 87 % of control | [5] 95 % of control | dose: 400.0 mg/kg/injection, schedule: Q01DX009 (ip), vehicle: saline with Tween-80 96 % of control | [6] 89 % of control

O=c1nc(SCc2ccccc2)c(SCc2ccccc2)n[nH]1
inactive: [2] 95 % of control | [3] 98 % of control | [10] 91 % of control

FC(F)(F)C(F)(C1=NS1(F)C(F)(C(F)(F)F)C(F)(F)F)C(F)(F)F (stereo unspecified)
inactive: dose: 100.0 mg/kg/injection, schedule: Q01DX001 (ip), vehicle: acetone 101 % of control | dose: 200.0 mg/kg/injection, schedule: Q01DX001 (ip), vehicle: acetone 95 % of control | dose: 400.0 mg/kg/injection, schedule: Q01DX001 (ip), vehicle: acetone 100 % of control

O=[N+]([O-])C1CC=CCC1C(Cl)(Cl)Cl (stereo unspecified)
inactive: dose: 5.0 mg/kg/injection, schedule: Q04DX003 (ip), vehicle: saline sonified 95 % of control | dose: 10.0 mg/kg/injection, schedule: Q04DX003 (ip), vehicle: saline sonified 110 % of control | dose: 20.0 mg/kg/injection, schedule: Q04DX003 (ip), vehicle: saline sonified 98 % of control

CSc1nc(N)cc(C(N)=O)n1
inactive: dose: 100.0 mg/kg/injection, schedule: Q01DX Z (ip), vehicle: methylcellulose (MC) 101 % of control

COC(C)CCC(=O)O.[Ag] (stereo unspecified)
inactive: dose: 6.25 mg/kg/injection, schedule: Q01DX009 (ip), vehicle: saline with Tween-80 95 % of control | dose: 12.5 mg/kg/injection, schedule: Q01DX009 (ip), vehicle: saline with Tween-80 91 % of control | dose: 12.5 mg/kg/injection, schedule: Q04DX003 (ip), vehicle: saline with Tween-80 91 % of control | dose: 25.0 mg/kg/injection, schedule: Q01DX009 (ip), vehicle: saline with Tween-80 95 % of control | dose: 25.0 mg/kg/injection, schedule: Q04DX003 (ip), vehicle: saline with Tween-80 96 % of control

BrC1CCCCC1Br (stereo unspecified)
inactive: [2] 98 % of control | [3] 101 % of control

OCC1CCC(n2cnc3c(=S)nc[nH]c32)C1 (stereo unspecified)
inactive: [7] 102 % of control | [8] 102 % of control | dose: 400.0 mg/kg/injection, schedule: Q01DX001 (ip), vehicle: carboxymethylcellulose (CMC) 96 % of control

N#Cc1nccc2ccccc12
inactive: [1] 106 % of control | [11] 103 % of control | [12] 100 % of control

CC(=O)/C(=C\c1ccc(N(C)C)cc1)C(C)=[N+](C)C(=O)c1c(/[N+](C)=C(C)\C(=C\c2ccc(N(C)C)cc2)C(C)=O)ncn1C
inactive: [9] 103 % of control | [2] 103 % of control and 90 % of control | [3] 97 % of control and 118 % of control

O=C(Cc1cc2c(cc1[N+](=O)[O-])OCO2)c1c[nH]c2ccccc12
inactive: [9] 98 % of control | [2] 98 % of control | [3] 95 % of control | [10] 101 % of control

CC1(/C=N\NC(=O)CCCC(=O)N/N=C/C2(C)CCC=CO2)CCC=CO1 (stereo unspecified)
inactive: [2] 92 % of control | [10] 97 % of control

CCCCNC(=O)Nc1c(C)cccc1C
inactive: dose: 100.0 mg/kg/injection, schedule: Q01DX009 (ip), vehicle: gum acacia 99 % of control | dose: 100.0 mg/kg/injection, schedule: Q04DX003 (ip), vehicle: gum acacia 92 % of control | dose: 200.0 mg/kg/injection, schedule: Q01DX009 (ip), vehicle: gum acacia 87 % of control | dose: 200.0 mg/kg/injection, schedule: Q04DX003 (ip), vehicle: gum acacia 91 % of control | dose: 400.0 mg/kg/injection, schedule: Q01DX009 (ip), vehicle: gum acacia 87 % of control | dose: 400.0 mg/kg/injection, schedule: Q04DX003 (ip), vehicle: gum acacia 92 % of control
